Assay results from patent US8829028B2, “5-HT4 receptor antagonists for the treatment of heart failure” (Serodus AS, priority 2002, dated 2014).

What was measured:
[1] = target: T1, 5-HT4 receptor (Rattus norvegicus, UniProt Q62758); assay: 5-HT4 receptor-mediated inotropic response in papillary muscle of CHF rat 6 weeks after aortic banding; format: cell-based; conditions: 1 μM GR113808 after 10 μM serotonin
T1 construct: The papillary muscles were mounted in organ baths; from tissue; host or cells: rat posterior left ventricular papillary muscle (post-MI or aortic-banding heart failure)
Experimental: Trans-aortic constriction (aortic banding) of the ascending aorta was induced in 200 g male Wistar rats under anaesthesia, induced by 63% N2O, 32% O2 and 5% Isoflurane and maintained by 66% N2O, 33% O2 and 1-2% Isoflurane. A right-sided thoracotomi was performed through a 3-4 cm long cutaneous incision, the pericardium was opened and the ascending aorta identified and dissected free of surrounding tissue. A ligature was knit around the ascending aorta and a metal probe with diameter 0.9 mm. The metal probe was then removed. The result was a constriction of the ascending aorta with internal diameter about 0.9 mm. The thorax was then closed with 3-0 silk sutures and the skin closed with Dexon 1 sutures. […]
Papillary muscle was extracted from a CHF rat 6 weeks after aortic banding as described above. osterior left ventricular papillary muscle was prepared, mounted in organ bath, equilibrated and field stimulated at 1 Hz (Sjaastad et al. 2003 supra), and the contraction-relaxation cycles (CRCs) were recorded and analysed as previously described (Skomedal et al. 1997, J. Pharmacol Exp Ther 280: 721-729) (Sjaastad et al., 2003, supra) with respect to maximal developed force (Fmax), maximal development of force (dF/dt)max, time to peak force (TPF), time to relaxation to 20% level (TR20) and relaxation time (RT=TR20-TPF).

[2] = target: T2, 5-HT4 receptor (Homo sapiens, UniProt Q13639); assay: Inotropic response in trabecular muscle from explanted post-infarct human heart; format: cell-based; parameters: Trabecular muscles were prepared, mounted in organ baths; from tissue; host or cells: trabecular muscle from explanted human hearts (post-infarct; dilated cardiomyopathy); conditions: 1 μM GR113808 after 10 μM serotonin
Experimental: The heart was explanted from a patient who had survived a small myocardial infarction and died in hospital from subarachnoidal haemorrhage. Trabecular muscles were prepared, mounted in organ baths, equilibrated and field stimulated at 1 Hz (Skomedal et al., 1997, supra) and the contraction-relaxation cycles (CRCs) were recorded and analysed as previously described (Skomedal et al., 1997, supra) with respect to maximal developed force (Fmax), maximal development of force (dF/dt)max, time to peak force (TPF), time to relaxation to 20% level (TR20) and relaxation time (RT=TR20-TPF).

[3] = target: T2, 5-HT4 receptor; assay: Inotropic response in trabecular muscle from explanted human heart with dilated cardiomyopathy (IBMX present); format: cell-based; parameters: Trabecular muscles were prepared, mounted in organ baths; from tissue; host or cells: trabecular muscle from explanted human hearts (post-infarct; dilated cardiomyopathy); conditions: 1 μM GR113808 after 10 μM serotonin; IBMX 35 μM
[4] = target: T2, 5-HT4 receptor; conditions: Gale et al., 1994; cited from earlier work
[5] = target: T1, 5-HT4 receptor; assay: Antagonism of the serotonin inotropic response by 5-HT4 antagonists in post-MI rat papillary muscle (reversal, curve shift, Schild Kb); format: cell-based
Experimental: The muscles were field stimulated with alternating polarity at 1 Hz with impulses of 5 msec duration and current about 20% above individual threshold (10-15 mA, determined in each experiment). The isometrically contracting muscles were stretched to the maximum of their length-tension curve. The force was recorded and analysed as previously described (Skomedal et al., 1997, J. Pharmacol. Exp. Ther. 280: 721-729). The muscles were allowed to equilibrate for 90 minutes. […] Averaged contraction-relaxation cycles (CRC) were calculated for different experimental periods, and these cycles were used to determine descriptive parameters like maximal development of force (dF/dt)max, time to peak force (TPF) and time to relaxation to 20% level (TR2O). Relaxation time (RT) was calculated as TR2O-TPF. (dF/dt)max was used as an index of contractility. Inotropic responses induced by agonists were expressed by increase in (dF/dt)max. RT was used as index of relaxation. Lusitropic responses were expressed as reduction in RT. Mechanical response at the end of the equilibrium period was used as the control response.
Agonist was added cumulatively or as a single bolus directly to the organ baths and was completely mixed in the solution within 2-3 seconds. […] The different agonists were added directly to the organ baths in increasing concentrations until supramaximal concentrations of agonist were obtained with respect to maximal inotropic response.
The responses for each concentration of agonist were generally calculated as percent of maximal response. The concentration-response curves constructed from papillary muscle experiment were constructed according to Ariens and Simonis (1964, supra), by estimating centiles (EC10 to EC100) for each single experiment and calculating the corresponding means. This calculation provides mean curves that express the response as fractional response or percent of maximum and display horizontal positioning and the correct mean slope of the curves. The horizontal positioning of the concentration-response curves was expressed as pEC50-values (=−log EC50). Data are expressed as mean±standard error of the mean (SEM) and the number of animals expressed as n. The significance levels of differences were calculated according to Students t-test. P<0.05 is considered statistically significant. The inhibition constants Kb were calculated from the Schild equation, based on the relative shifts of the concentration-response curves for receptor stimulation.

T1 sequence (Q62758 whole entry): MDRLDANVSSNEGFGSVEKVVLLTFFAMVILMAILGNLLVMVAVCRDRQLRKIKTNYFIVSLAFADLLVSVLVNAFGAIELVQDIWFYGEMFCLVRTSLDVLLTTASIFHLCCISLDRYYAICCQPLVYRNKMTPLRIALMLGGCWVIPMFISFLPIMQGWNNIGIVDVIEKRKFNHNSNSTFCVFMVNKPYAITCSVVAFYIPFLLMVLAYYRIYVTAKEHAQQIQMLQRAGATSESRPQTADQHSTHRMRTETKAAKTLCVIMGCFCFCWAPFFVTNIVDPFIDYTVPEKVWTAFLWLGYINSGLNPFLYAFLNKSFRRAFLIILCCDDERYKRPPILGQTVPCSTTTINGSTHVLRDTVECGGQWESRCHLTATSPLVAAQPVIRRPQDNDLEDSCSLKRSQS
T2 sequence (Q13639 whole entry): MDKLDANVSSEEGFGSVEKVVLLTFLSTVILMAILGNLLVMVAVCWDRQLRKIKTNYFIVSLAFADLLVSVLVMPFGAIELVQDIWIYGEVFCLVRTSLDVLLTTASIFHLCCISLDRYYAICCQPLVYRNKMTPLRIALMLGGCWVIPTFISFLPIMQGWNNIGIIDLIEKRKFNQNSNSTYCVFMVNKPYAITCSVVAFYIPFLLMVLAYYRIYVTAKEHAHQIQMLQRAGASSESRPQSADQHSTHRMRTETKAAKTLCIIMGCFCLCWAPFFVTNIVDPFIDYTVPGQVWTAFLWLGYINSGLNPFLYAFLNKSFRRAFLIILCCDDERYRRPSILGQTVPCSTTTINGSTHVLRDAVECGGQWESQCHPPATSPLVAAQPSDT

Cn1cc(C(=O)OCC2CCN(CCNS(C)(=O)=O)CC2)c2ccccc21 [GR113808, {1-[2-(methyl-sulphonylamino)ethyl]-4-piperidinyl}methyl 1-methyl-1H-indole-3-carboxylate]
reversal of the positive inotropic response to serotonin [1]: reversed | reversal of the positive inotropic response to serotonin [2]: reversed | reversal of the positive inotropic response to serotonin [3]: reversed | pKi [4]: 9.2-9.7 | Kb [5]: 0.5 nM | reversal of the inotropic response evoked by 10 μmol/l serotonin [5]: completely reversed | reversal of the serotonin-induced shortening of the contraction-relaxation cycles [5]: not completely reversed
